For assay [1], the system named is ABA-responsive genes MAPKKK18, RD29A and RD29B. Briefly: qRT-PCR of ABA-responsive genes in Arabidopsis seedlings. It is filed as in vivo, Arabidopsis (Columbia accession). The note with it: 10-day-old seedlings, 6 h. On the procedure:
Figure 5 Effects of (−)-Abz-E3M on the expression levels of Arabidopsis ABA-responsive genes. Expression of MAPKKK18, RD29A and RD29B after treatment with (−)-Abz-E2B or (−)-Abz-E3M in the absence or presence of 0.25 μM ABA (n = 4, error bar represents s.d.).
Arabidopsis (Columbia accession) were grown for 10 d on agar plates containing 1/2 Murashige and Skoog (MS) and 0.5% sucrose at 22 °C under an 18/6-h light/dark cycle. Seedlings were incubated in the chemical solutions for 6 h. Total RNA from seedlings was isolated using the Plant RNA purification reagent (Thermo Fisher Scientific) according to the manufacturer’s instructions. cDNA was synthesised using the QuantiTec reverse transcription kit (Qiagen). Maize (cv. Gold rush, Sakata Seed Corporation) seedlings were grown in 100-mL pots containing 75 g of moist soil in a glass house. The root parts of the maize seedlings were washed with tap water and dipped in 100 μM (−)-Abz-E3M chemical solution containing 0.05% Tween-20 overnight. Total RNA from maize seedlings was isolated using an RNeasy mini kit (Qiagen) with the ‘on-column’ DNA digestion method. cDNA was synthesised using a High-Capacity cDNA Reverse Transcription Kit (Thermo Fisher Scientific). Real-time PCR using SYBR Premix Ex Taq™ II (Takara) was performed with Step One-Plus (Thermo Fisher Scientific). The primer sets are shown in Supplemental Table S1.
In general terms: Real-time PCR tracks product formation cycle by cycle.

Assay [2] has as its system ABA catabolism. The conditions noted are these: in vivo.
Procedure: For ABA measurements from Arabidopsis seedlings, samples (1–20 mg dry weight) were ground with beads in 2-mL tubes and homogenised in 1 mL 80% (v/v) MeCN containing 1% AcOH (v/v) with d6-ABA. After extracting for 16 h at 4 °C, samples were centrifuged at 4 °C for 10 min at 3,000× g, and supernatants were collected. Samples were re-extracted twice with 1 mL 80% MeCN at 4 °C for 30 min, and the supernatants were collected after centrifugation. MeCN was removed with nitrogen gas, and the acidified water extracts were loaded into 1cc Oasis HLB cartridges. After washing with water containing 1% AcOH, plant ABA was eluted with 80% MeCN containing 1% AcOH. MeCN was removed, and samples were loaded into 1cc Bond Elute DEA cartridges (Agilent). After washing with MeOH, the ABA was eluted using MeOH containing 1% AcOH. The fractions containing ABA were dried, dissolved in water containing 1% AcOH, and analysed by LC–MS/MS as described previously[35]. The LC conditions for Arabidopsis samples were as follows: solvent A, water containing 0.01% (v/v) acetic acid; solvent B, MeCN containing 0.05% (v/v) acetic acid; and linear gradient, 3 to 40% solvent B over 9 min. Experiments were performed in triplicate, and the results were averaged.
25 µ M (−)-Abz-E3M (n = 3,error bar represents s.d.).Eleven-day-old seedlings of wild-type (Col accession) […]
For assay [3], the system named is rice seedling growth. The assay can be described thus: Rice seedling elongation assay. Format: in vivo, Oryza sativa L. cv. Nipponbare. The note with it: Fig. S5. The protocol: The effects of (−)-Abz-T compounds were also tested on the early growth of rice seedlings to investigate whether the plant growth-retardant effect derived from UNI declined. […] This was the same trend observed for (−)-Abz-E2B[26]. […] Thus, the growth-retardant effects of (−)-Abz-T compounds may arise from an increase in the endogenous ABA level due to the CYP707A inhibition, although we cannot exclude the possibility that Abz-T compounds may inhibit off-target enzymes other than CYP707A and CYP701A.
Figure 4 Effects of (−)-Abz-T compounds on rice seedling growth compared with the effects of UNI and (−)-Abz-E2B. Seedlings grown on test media containing indicated concentrations of azole inhibitors for 7 d. Scale bars represent 10 mm. Compound 6 is also referred to as Abz-E3M.
For the rice seedling elongation assay, seven seeds (Oryza sativa L. cv. Nipponbare) were sterilised with reagent-grade EtOH for 5 min and washed with running tap water. They were then soaked in distilled water and incubated under continuous illumination at 25 °C for 3 d to germinate. The germinated seeds were then soaked in 2 mL of a test medium in a glass tube and grown under continuous illumination at 25 °C. When the seedlings were 7 d old, the length of the second leaf sheath was measured. All of the assays were conducted at least three times.

Assay [4] has as its system Arabidopsis stomata / leaf surface temperature. The assay can be described thus: Thermal imaging and stomatal aperture in Arabidopsis. Format: in vivo. On the procedure:
The effects of (-)-Abz-[…] were also determined relative to stomatal apertures. Arabidopsis grown in soil pots underwent moderate drought stress under the optimal growth conditions of 22 °C and 60% relative humidity. Under these growth conditions, the leaf surface temperature of the mock-treated controls was 19.5 °C, which was lower than the surrounding atmospheric temperature because of transpirational water loss (Fig. 6a,b)[30]. […] Finally, we examined the effects of (-)-Abz-[…] on drought tolerance under more practical conditions. Three-week-old Arabidopsis were sprayed with an aqueous solution containing 50 μM (-)-Abz-[…]. Water was not supplied for 12 days, and then the plants were rehydrated. […] We also tested the effects of (-)-Abz-[…] on a monocot crop, maize, to evaluate whether (-)-Abz-[…] affected stomatal movement and enhanced ABA response across plant species. […] Thus, the effects of (-)-Abz-[…] were not restricted to the model plant Arabidopsis. Figure 6 Effects of (-)-Abz-[…] on Arabidopsis drought tolerance. (a,b) Three-week-old plants were treated with 50 μM of (-)-Abz-[…] and incubated overnight at 22 °C with 60% relative humidity. Thermal images of plants were obtained using a thermal imaging camera ([…], Nippon Avionics Co., Ltd.), and the average temperatures on leaf surfaces were determined with NS9200 software (n = 5, error bars represent s.d.). Representative images are shown in (a). (c) Stomatal apertures after the application of 50 μM (-)-Abz-[…]. After an overnight incubation, plants were placed at 22 °C with ~90% relative humidity for 1 h. Stomatal images were obtained using Suzuki's universal micro-printing method. […] (d) Effects of (-)-Abz-[…] on endogenous ABA levels. Four-week old plants grown in soil pots were treated with 50 μM (-)-Abz-[…], and leaves were harvested after an overnight incubation. Values are means with s.d. (n = 6). (e) Four-week-old plants were subjected to drought stress by withholding water. […]

As to abscinazole-E3M [(−)-6], the “Expression of ABA-responsive genes MAPKKK18, RD29A and RD29B” value is reported as “did not induce the expression” in assay [1] (absence of exogenous ABA) and “enhanced the expression levels of ABA-responsive genes” in assay [1] (co-treatment with 0.25 μM ABA). Also, the “ABA catabolism / ABA accumulation in plants” value in assay [2] is “inhibited ABA catabolism and increased ABA accumulation in plants”. The “Effect on rice seedling growth, co-treatment with ABA” value in assay [3] (10 μM compound + 1 μM ABA) was “inhibited rice seedling growth”. Besides, the “Effect on rice seedling growth, compound alone” value in assay [3] (10 μM, no ABA) is on record as “did not”. Moreover, the Transpirational water loss result in assay [4] (50 μM spray, overnight) is reported as “reduced the water loss”. Besides, in assay [4] (50 μM spray, overnight, 22 °C, 60% relative humidity), the Leaf surface temperature result is “increased leaf temperatures”. Further, in assay [4] (50 μM, overnight then ~90% relative humidity 1 h), the Stomatal aperture result is “led to stomatal closure”.

For the origin of these results see publication PMC5107945, “Abscinazole-E3M, a practical inhibitor of abscisic acid 8′-hydroxylase for improving drought tolerance” (Scientific Reports, 2016).
